Data: patent US6162459A, “Acyclovir transdermal delivery system” (priority 1997, dated 2000)
Entries after “also recorded” stand apart in the source; their conditions may differ. Each block holds one molecule with its values, some of them ahead of it.

Key:
[1] = in vitro; cited from earlier work
[2] = in vivo; cited from earlier work
[3] = format: physicochemical
Source text: Since drugs are said to pass the skin through either polar pathways or norpolar pathways, it is instructive to examine the solubility parameters and lipophilic indices of such enhancers, the latter being calculated from the defermination of their k' values in the mobile phase of varying methanol concentrations of the HPLC method used.

[4] = used locally; cited from earlier work
[5] = system: HSV 1; conditions: cited from earlier work
[6] = system: HSV 1; conditions: cited from earlier work; remark: listed apart in the source
[7] = system: HSV 2; conditions: cited from earlier work
[8] = system: Varicella Zoster virus(VZV); conditions: cited from earlier work
[9] = system: Epstein Barr virus(EBV); conditions: cited from earlier work
[10] = system: Cytomegalovirus(CMV); conditions: cited from earlier work
[11] = system: HSV; conditions: in vivo studies; cited from earlier work

SMILES: CC1(C)[C@@H](O[C@H]2O[C@H](C(=O)O)[C@@H](O)[C@H](O)[C@H]2O[C@@H]2O[C@H](C(=O)O)[C@@H](O)[C@H](O)[C@H]2O)CC[C@]2(C)[C@H]3C(=O)C=C4[C@@H]5C[C@@](C)(C(=O)O)CC[C@]5(C)CC[C@@]4(C)[C@]3(C)CC[C@@H]12 [glycyrrhizin]
- anti-inflammatory property [1]: anti-inflammatory property
- effect against paw swelling [2]: effective against paw swelling

- polarity [3]: opposite polarities
SMILES: CC1(C)CC[C@]2(C(=O)O)CC[C@]3(C)C(=CC[C@@H]4[C@@]5(C)CC[C@H](O)C(C)(C)[C@@H]5CC[C@]43C)[C@@H]2C1 [oleanolic acid]

SMILES: O=c1[nH]c(=O)n([C@H]2C[C@H](O)[C@@H](CO)O2)cc1I [IDU]
- toxicity [4]: relatively low toxicities

SMILES: Nc1nc2c(ncn2COCCO)c(=O)[nH]1 [ACV, 9-[(2-Hydroxyethoxy)methyl]-guanine]
- drug concentration in the skin, local vs oral ([5]; local application vs given orally): 2-3 times lower
- effect in the treatment of HSV 1, oral vs local ([5]; oral administration vs local application): better with oral administration than with local application
- activity against HSV 1 [6]: active; also recorded: especially HSV 1
- activity against HSV 2 [7]: active
- activity against VZV [8]: active
- activity against EBV [9]: active against EBV, but only during the productive cycle
- activity against CMV [10]: active
- effectiveness against CMV, comparison ([10]; compared with DHPG, Idoxuridine, Trifluridine, or Ara-A, in some case): less effective against CMV as compared with DHPG, Idoxuridine, Trifluridine, orAra-A
- in vivo rating to treat HSV, comparison [11]: better than FIAC(D17) and DHPG(D2); also recorded: better than bromovinyldeoxy uridine(D16) being effective against both HSV 1 and HSV 2
